Test results published in paper PMC3871595, “Structure Based Identification and Characterization of Flavonoids That Disrupt Human Papillomavirus-16 E6 Function” (PLoS ONE, 2013).

Key:
caspases 3 and 7 = assay: Caspase-Glo 3/7 apoptosis assay; assay type: cell-based, human; details: 4 – 48 hours
Procedure: (§1) This was specific to Caski cells and was not observed in RPE-1, HeLa cells, or the HPV negative control cell lines C33a and HaCat (Figures S2A,B ). […] As observed in the viability assay, this occurred in both the HPV positive and negative cell lines. […] These cell lines were also assayed for apoptosis.
(§2) For cell viability, 12,000 cells per cm^2 were plated in 96-well dishes 24 hours prior to drug addition. Fresh media and compound were added. Plates were read after 72-96 hours. Relative cell viability was assayed as directed in the Celltiter 96 AQueous one solution assay (Promega). For caspase activity, plates were assayed after 4, 8, 12, 24, or 48 hours as described for the Caspase-Glo 3/7 assay (Promega).

Caski cells [1] = assay: cell viability (MTS, Celltiter 96 AQueous) Caski; assay type: cell-based, human; details: 48 to 96 hours, relative to DMSO
Caski cells [2] = assay: p53/p21 immunoblot analysis in Caski cells; assay type: cell-based, human; details: 40 hours
Procedure: Caski cells, which are derived from an HPV-16 infected cervical carcinoma and express HPV-16 E6 and E7, were used to determine whether these compounds interfere with HPV-16 E6 function. Inhibition of E6 should block its ability to promote the degradation of p53 thereby increasing the levels of p53. […] These compounds were also assayed in telomerase immortalized human retinal epithelial cells (RPE-1). […] If the elevation in p53 is dependent on the inhibition of E6 by these compounds, p53 should not increase in the RPE-1 cells.
(§3) 20,000 cells per cm^2 were plated in 6-well dishes. Cells were incubated for 24 hours at which time fresh media and compound were added. After 40 hours, cells were harvested, washed with cold PBS, and lysed in RIPA buffer with protease inhibitor. Each sample was separated on a 12% SDS-page gel, transferred to Immobilon-P membrane (Millipore) and blotted for the p53 (DO-1, Santa Cruz), p21 (c-19, Santa Cruz), and actin (A2066, Sigma). Protein quantification was performed with the Fujifilm LAS-4000 Multifunctional Imaging System. The signal intensity was measured for each band on an immunoblot, normalized to the loading control, and the fold increase was determined in relation to the appropriate DMSO treated control. RNA was isolated from these cells using Trizol Reagent (Invitrogen 15596-026). cDNA was generated using the Improm-II Reverse Transcription System (Promega A3801). qPCR was performed as described in the protocol for SsoFast EvaGreen supermix (BioRad 172-5023) using an BioRad CFX96 real-time PCR machine. Melting curves for each reaction were obtained. Each sample was assayed in triplicate and every plate contained a 5-point cDNA dilution course to calculate amplification efficiency for each primer pair. The Pfaffl method was used to determine the change in transcript levels relative to the DMSO and normalized to GAPDH.

[3] = system: HPV-16 E6 mediated p53 degradation; assay: in vitro HPV-16 E6 mediated p53 degradation assay; assay type: biochemical
Procedure: In vitro expressed p53 was incubated in rabbit reticulocyte lysate in the presence or absence of in vitro expressed HPV16 E6. p53 levels were reduced in reaction containing E6 proteins (Figure 8 ).
Control reactions (no DNA, p53 alone) were incubated with 1 µL wheat germ extract and 2% DMSO in reaction buffer. In vitro translated p53 and rabbit reticulocyte lysate (RRL, Promega) were added to all reactions except the no DNA control reaction to which wheat germ extract was added instead of p53. Reactions were incubated for 3 hrs at 30°C and stopped by addition of 6X reducing SDS sample buffer and heating at 95°C for 5 min. Each reaction was loaded onto a 10% SDS-PAGE gel and transferred onto PVDF (0.45 µm). p53 and 16E6 were visualized using monoclonal p53 (Pab1801, 1:1000), monoclonal 16E6 (813, Arbor Vita Corporation, 1:4000) antibody and anti-mouse HRP-labeled secondary antibody (1:2000, Sigma-Aldrich).

[4] = system: primary human foreskin keratinocytes; assay: p53/p21 immunoblot analysis in primary HFKs; assay type: cell-based; details: 40 hours
Procedure: Each compound was used to treat primary HFKs or HFKs immortalized through the over-expression of HPV16 E6 and E7 proteins.
as §3

Caski cells [5] = assay: SA-beta-gal senescence assay in Caski cells; assay type: cell-based, human; details: 72 hours, versus vehicle
Procedure: as §1
12,000 cells per cm^2 were plated in 24-well dishes; after 24 hours, fresh media and compound were added. SA-beta gal staining was performed as described. Images were collected using bright field microscopy. At least four fields (~100 cells per field) were read for each treatment, and experiments were repeated 3 times. The percent SA-beta-gal positive cells was calculated for each data point.

[6] = molecular target: T1, interaction between GST-E6 and three PDZ domains of hDlg fused to BAP (hDlg-BAP) (Human papillomavirus type 16, UniProt P03126); assay: E6/hDlg-BAP specificity filter binding assay; design: species or system HPV-16
T1 construct: made in house; host or cells: E. coli BL21
T1 sequence (P03126 whole entry, the tested form may be a part): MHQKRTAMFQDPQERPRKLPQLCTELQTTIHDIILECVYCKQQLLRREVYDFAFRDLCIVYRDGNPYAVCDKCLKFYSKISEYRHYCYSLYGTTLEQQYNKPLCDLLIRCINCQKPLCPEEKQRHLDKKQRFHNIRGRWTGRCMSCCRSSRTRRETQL
Procedure: This interaction between E6 and hDlg occurs at the C-terminus of E6 and is independent of the interaction between E6 and the charged leucine helix in E6AP [21, 22].
Pre-Block - 96-well filter plates were prepared (0.2 µm BioTrace NT, Pall). 100µL of blocking buffer (100 mM Tris pH 8.0, 100 mM NaCl, 0.1% milk) was added per well. Plates were blocked for 1 hr at RT on an orbital shaker. Buffer was removed by vacuum filtration using a vacuum manifold. GST-E6 Bead addition – GST-E6 beads were prepared at 5µg/mL in GST-E6 bead buffer (100 mM Tris pH 8.0, 100 mM NaCl, 0.1% milk, 2.5 mM DTT). 100µL of GST-E6 bead mix was added per well and incubated for 1 hr at 4°C. Buffer was removed by vacuum filtration. […] 48 µL of each reagent was added per well. For drug assay, 2µL of compound was added to each well and mixed thoroughly. […] Plates were incubated for 1-3 hours at RT on an orbital shaker. Buffer was removed by vacuum filtration. Plates were washed on the vacuum manifold, first with 200 µL buffer (100 mM Tris pH 8.0, 100 mM NaCl, 1 mM DTT), and twice more with 100µL lysis buffer without DTT. […] 60 µL of Immunostar-AP assay reagent was added, the BAP activity was allowed to develop for 10 minutes and the plates were read on a Wallace Luminometer. BAP activity was measured as relative light units (RLU) on a luminometer using the Immunostar-AP substrate (BioRad).

HaCat cells = assay: cell viability (MTS, Celltiter 96 AQueous) HaCat; assay type: cell-based, human; details: HaCat (HPV negative), 48 to 96 hours, relative to DMSO
Procedure: HPV-18 positive HeLa cells and two additional control cell lines, C33a, a cell line derived from an HPV-negative human cervical cancer isolate, and HaCat, a spontaneously immortalized human keratinocyte cell line, were used to assess compounds for their impact on cell growth and viability. All cells were incubated for 48 to 96 hours with increasing doses of compound. Cell viability was measured by MTS based assay and % viability quantified relative to cells treated with DMSO.
as §2

[7] = 100 µM compound pre-incubated with E6

Compound | caspase 3 and 7 activity (caspases 3 and 7) | cell growth and viability (Caski cells [1]) | p21^Cip1/Waf1 protein levels (Caski cells [2]) | p53 protein levels (Caski cells [2]) | effect on E6 mediated p53 degradation [3, 7] | p21 protein levels [4] | p53 protein levels [4] | SA-β-gal staining (Caski cells [5]) | specificity against hDlg control binding reaction [6] | effect on E6 mediated p53 degradation ([3]; 10 µM compound pre-incubated with E6) | cell growth and viability (HaCat cells)
O=c1cc(-c2ccc(O)c(O)c2)oc2cc(O)cc(O)c12 [luteolin, reference compound] | did not observe increased caspase activity | potent inhibitor of Caski, E6/E7 HFKs, and HeLa growth | concomitant induction | increased p53 levels | decrease in p53 was not observed | E6 independent increase in p53 and p21 | E6 independent increase in p53 and p21 | no significant increase in β-gal staining |  |  | 
COc1cccc(-c2cc(=O)c3cc(-c4nnn[nH]4)ccc3o2)c1 [CAF-24] | did not observe increased caspase activity | selectively inhibited growth | concomitant induction | increased p53 levels | stabilized p53 | little effect on p53 and p21 levels | little effect on p53 and p21 levels | increased more than two-fold | increased specificity against the FLAG and hDlg control binding reactions | stabilized p53 | little effect on the viability
